Our source for the RP-LC retention time values is the METLIN SMRT retention time set (Domingo-Almenara et al. 2019).

A short description of this data set: gradient 5% acetonitrile 3 min, to 50% in 2 min, to 85% in 15 min, held 3 min, 100 µL/min. Particulars: column: Zorbax Extend-C18 2.1 x 50 mm; eluents: water / acetonitrile, 0.1% formic acid. The method, boiled down:
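Retention times come from adduct peaks that were picked computationally and then checked by hand. The standards, pure and pooled in mixtures of ~100 molecules, were run on a Zorbax Extend-C18 column (2.1 × 50 mm, 1.8 μm) at 100 μL/min with water and acetonitrile, each with 0.1% formic acid. Detection was by quadrupole time-of-flight mass spectrometry in positive and negative ionization mode, with a dead volume of 40 μL and a dwell volume of 900 μL.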
The compound `CCOC(=O)c1cn(Cc2cccc(C)c2)c2nc(C)ccc2c1=O` returned an RP-LC retention time of 925 s.
In turn, `COc1ccc(-c2cn3c(CC(=O)Nc4cc(C)on4)csc3n2)cc1OC` showed an RP-LC retention time of 664 s.
As for `CC(C)CC(=O)Nc1ccc(S(=O)(=O)N2CCCC2c2nc(-c3ccc(F)cc3)no2)cc1` (stereo not given), the RP-LC retention time amounted to 1080 s.
For `CCN(Cc1cn(CC)nc1C)C(=O)CC1=C2CCCCC2N(C)C1=O` (stereo not given), the RP-LC retention time was 648 s.
Turning to `CCCCNC(=O)Cn1c(=O)c2cnc(-c3ccc(Cl)cc3)nc2n(C)c1=O`, the RP-LC retention time came to 982 s.
The same measure for `O=C(c1ccco1)N1CCC(n2c(-c3ccsc3)nc3cccnc32)C1` (stereo not given): 644 s; for `Cc1ccc(CC(=O)Nc2cc(-c3ccc(C)s3)no2)cc1`: 1050 s.
Consider `Cc1nnc(C2CCCN(C(=O)c3ccc4nsnc4c3)C2)s1` (stereo not given), for which the RP-LC retention time was 651 s.
The compound `COC(=O)c1cn(C(=O)c2ccccc2)c2ccccc12` registered an RP-LC retention time of 1090 s.
In turn, `O=C(NCC1CC1)c1cccc(OC2CN(Cc3cc4ccccc4nc3Cl)C2)c1` displayed an RP-LC retention time of 667 s.
Turning to `COc1ccc(NS(=O)(=O)c2ccc(-c3c(C)noc3C)cc2)cc1`, the RP-LC retention time stood at 877 s.
The same measure for `COc1ccc(C2C(=O)N(C3CCCCC3)CC(=O)N2Cc2cccs2)cc1` (stereo not given): 952 s; for `O=C(Nc1nnc(-c2ccsc2)o1)c1ccc2nsnc2c1`: 698 s.
Regarding `NCC(=O)Nc1ccc(Cl)cc1C(=O)c1ccc[nH]1`, the RP-LC retention time amounted to 665 s.
The same measure for `COCCCNC(=O)CN1c2ccccc2NC2=C(C(=O)CC(C)(C)C2)C1c1ccco1` (stereo not given): 725 s.
`Cc1ccc(NC(=O)Nc2ccc3nnc(C)n3c2)cc1F` came in with an RP-LC retention time of 710 s.
Take `CC(=O)c1ccc(Nc2ncnc3c2cnn3-c2ccccc2Cl)cc1`: the RP-LC retention time was 804 s.
`CNC(=O)C1(C)CC(c2ccccc2)=NO1` (stereo not given) had an RP-LC retention time of 693 s.
Regarding `c1ccc(-c2csc(Nc3ncccn3)n2)nc1`, the RP-LC retention time was 594 s.
For `COc1cccc(Cn2cc(C(=O)c3cc(C)ccc3C)c(=O)c3ccc(C)nc32)c1`, the RP-LC retention time is 1060 s.
In turn, `COc1ccc(N2CCN(C(=O)COc3ccc(NC(=O)C4CC4)cn3)CC2)cc1` gave an RP-LC retention time of 673 s.
`COc1ccc(NC(=O)Cn2c(=O)n(-c3ccc(C)cc3)c3ncccc32)cc1OC` yielded an RP-LC retention time of 802 s.
As for `CCCCNC(=O)CCc1cc2cc(OC)ccc2[nH]c1=O`, the RP-LC retention time amounted to 664 s.
In turn, `Cc1ccc(-c2[nH]ncc2CN)cc1C` showed an RP-LC retention time of 586 s.
Consider `O=C(Nc1cc(F)ccc1F)N1CCN(Cc2nc3cccnc3n2-c2ccccc2)CC1`, for which the RP-LC retention time turned out to be 676 s.
The figure for `Cc1oc(-c2[nH]ncc2C(=O)N(C)C)cc1S(=O)(=O)Nc1ccc(F)c(F)c1` is 890 s; for `O=C(Nc1ccccc1Cl)c1c(O)c2cccnc2n(-c2cccc(F)c2)c1=O` it is 1270 s.
The same measure for `CNC(=O)CCc1cc2cc(C)ccc2[nH]c1=O`: 623 s.
Compound `Cc1cc(C)n(Cc2nc(-c3ccc(NC(=O)CCc4ccccc4)cc3)oc2C)n1` displayed an RP-LC retention time of 944 s.
Regarding `O=C(c1ccsc1)N(CCc1cccs1)C1CC1`, the RP-LC retention time is 853 s.
`CCN(C(=O)c1cccs1)c1nc(-c2ccc(C)cc2)cs1` gave an RP-LC retention time of 1280 s.
Take `Cc1ccc(NC(=O)C(=O)c2ccc[nH]2)cc1`: the RP-LC retention time was found to be 894 s.
The figure for `CCOc1ccc(-c2noc(Cn3c(=O)n(C(C)CC)c(=O)c4ccccc43)n2)cc1OC` (stereo not given) is 1140 s; for `O=C(CN1c2ccc(F)cc2-c2ccccc2S1(=O)=O)NCc1ccccc1` it is 939 s.
The figure for `COc1cccc(C(=O)N2CCCn3nc(-c4ccc(C)cc4)cc3C2)c1OC` is 885 s.
The same measure for `Cc1c(N2C(=O)c3cccc4cccc(c34)C2=O)c(=O)n(-c2ccccc2)n1C`: 644 s.
For the compound `CCc1noc(NC(C)=O)c1-c1ccc(OC)c(S(=O)(=O)Nc2cccc(F)c2)c1`, the RP-LC retention time came to 794 s.
Compound `O=C(CC1CCN(C(=O)C2CCCCC2)CC1)NCc1ccccn1` displayed an RP-LC retention time of 596 s.
On to `COc1ccc(OC)c(NS(=O)(=O)c2cc3c4c(c2)CCC(=O)N4CCC3)c1`, for which the RP-LC retention time was found to be 804 s.
`CCCNc1cc(N2CCC(CCC(=O)Nc3ccc(C)cc3C)CC2)ncn1` returned an RP-LC retention time of 733 s.
Take `CCCCCn1c(=O)c2ccccc2n(Cc2nc(-c3ccc(OC)c(OC)c3)no2)c1=O`: the RP-LC retention time is 1120 s.
The compound `CCS(=O)(=O)N1CCc2c(c(CN(C(=O)c3ccccc3)c3ccccc3)nn2C)C1` displayed an RP-LC retention time of 775 s.
The same measure for `COCCn1ccc2nc(C)c(C(=O)Nc3ccc4c(c3)OCO4)cc2c1=O`: 666 s; for `COc1ccc(C2(C(=O)Nc3ccc4c(c3)Sc3ncccc3C(=O)N4C)CC2)cc1`: 902 s.
With `Cc1noc(-c2ccc(OC3CN(C(=O)C(C)Oc4ccccc4)C3)cc2)n1` (stereo not given), the RP-LC retention time is 899 s.
In turn, `CCC(C)NC(=O)CN1C(=O)CCc2cc(S(=O)(=O)N3CCC(C)CC3)ccc21` (stereo not given) displayed an RP-LC retention time of 858 s.
`Cc1ccccc1S(=O)(=O)Cc1ccc(C(=O)N2CCN(c3ccccn3)CC2)o1`: the RP-LC retention time was 613 s.
On to `COc1ccc(NC(=O)N2CCC(c3nc4cccnc4n3C)C2)cc1` (stereo not given), for which the RP-LC retention time came out at 617 s.
The same measure for `CC(C)Oc1ccc(-c2noc(CN3N=NC4C(=O)N(c5ccc(F)cc5)C(=O)C43)n2)cc1` (stereo not given): 1070 s.
As for `Cn1cnc2c(C(=O)N3CCCC3)nn(-c3ccc(Cl)cc3)c2c1=O`, the RP-LC retention time was 758 s.
The same measure for `O=C(Nc1nc2c(s1)CN(C(=O)c1cc(-c3ccccc3)on1)CC2)C1CCCO1` (stereo not given): 785 s; for `O=S(=O)(c1ccc2c(c1)CCC2)N1CCCC(Cn2c(C3CC3)nc3cccnc32)C1` (stereo not given): 775 s; for `CS(=O)(=O)N1CCC(C(=O)NCC(O)c2ccc(C(F)(F)F)cc2)CC1` (stereo not given): 652 s.
`COc1cccc(CN2CCC3(CC2)c2[nH]c4ccccc4c2CCN3C)c1` gave an RP-LC retention time of 596 s.
The same measure for `CC(C)c1nnc2ccc(NC(=O)Nc3ccccc3)cn12`: 712 s; for `O=S(=O)(c1ccc(F)cc1)N1CCC(OCCOCc2ccccc2)CC1`: 1060 s; for `CSc1cccc(NC(=O)NCCc2cn(C)c3ncccc23)c1`: 716 s.
For the compound `CC(C)CCNC(=O)c1c2c(cn(-c3ccccc3)c1=O)C(=O)CC(C)(C)C2`, the RP-LC retention time is 1030 s.
The figure for `COc1ccc(-n2ncc3c(=O)n(Cc4nc(-c5ccccc5OC)no4)cnc32)cc1` is 902 s.
For the compound `Cc1ccc2c(Nc3cc(F)cc(F)c3)c(C(=O)N3CCOCC3)cnc2n1`, the RP-LC retention time stood at 593 s.
On to `CC(C)N(Cc1ccccc1)C(=O)CN1C(=O)CCc2cc(S(=O)(=O)N3CCCCC3C)ccc21` (stereo not given), for which the RP-LC retention time was determined as 1060 s.
The figure for `COc1ccc(-c2nc3ccc(Br)cn3c2Nc2ccc(C)cc2)cc1` is 847 s; for `Cn1c(C2CCN(C(=O)Nc3ccc(Cl)cc3F)CC2)cc(=O)n2nccc12` it is 670 s; for `Cc1ccccc1NC(=O)N1CCc2nc(-c3ccccc3)ncc2C1` it is 817 s.
The figure for `COc1ccc(Cc2nnc(C3CCN(C(=O)c4ccc(=O)[nH]c4)CC3)s2)cc1` is 612 s; for `O=C1N(c2ccc(F)cc2)c2ncccc2S(=O)(=O)N1Cc1cccc(F)c1` it is 1030 s; for `CCCC(C)NC(=O)c1ccc2c(c1)CCCN2S(=O)(=O)CC` (stereo not given) it is 872 s.
`CCOc1ccc(-c2noc(Cn3c(=O)n(CC(C)C)c(=O)c4ccccc43)n2)cc1`: the RP-LC retention time came to 1210 s.
Take `O=C(Cc1cccs1)N1CCCCC1c1nc(-c2cnccn2)no1` (stereo not given): the RP-LC retention time came out at 726 s.
Compound `CC(=O)N1CCc2cc(-c3ccc(C(=O)NCCc4cccs4)cc3)ccc21` yielded an RP-LC retention time of 843 s.
The same measure for `COCc1cc(=O)n(CC(=O)Nc2cc(F)ccc2C)c(N)n1`: 627 s.
`O=c1c2ccccc2ncn1Cc1noc(-c2cccc(Br)c2)n1`: the RP-LC retention time worked out at 914 s.
Consider `COc1ccccc1C1C2=C(CC(C)(C)CC2=O)Nc2ccccc2N1C(=O)CCC(=O)O` (stereo not given), for which the RP-LC retention time was 699 s.
The compound `Cc1noc(C)c1-c1ccc(S(=O)(=O)NCc2cccs2)cc1` yielded an RP-LC retention time of 869 s.
`CCCNC(=O)CN1C(=O)CCCc2cc(S(=O)(=O)N3CCCCCC3)ccc21` showed an RP-LC retention time of 803 s.
The same measure for `O=C(CCSc1ccccc1)N1CCN(c2ccc3nnc(-c4ccco4)n3n2)CC1`: 703 s.
In the case of `Cc1cc(C)cc(NC(=O)C2CCc3nc(N4CCOCC4)ncc3C2)c1` (stereo not given), the RP-LC retention time is 848 s.
As for `Cc1ccc(C)c(NC(=O)Cn2ccc3ccc(-c4nnc(C)o4)cc32)c1`, the RP-LC retention time was 1150 s.
As to `O=C(Nc1nc2c(s1)CCc1ccccc1-2)Nc1c(F)cccc1F`, the RP-LC retention time was determined as 914 s.
Regarding `COc1ccc(Cc2nc(-c3ccc4c(c3)ncn4CCC(=O)N3CCCC3)no2)cc1`, the RP-LC retention time came to 716 s.
